Patent publication US10428140B2, “Anti-EphA4 antibody” (EISAI R&D MANAGEMENT CO., LTD., priority 2015, dated 2019)

Biological target: T1, mouse EphA4 (binding to mouse Ephrin A1) (Mus musculus, UniProt Q03137)
T1 construct: made in house; host or cells: HEK293EBNA cells
Test: Mouse EphA4-mouse ligand binding inhibition ELISA (Ephrin A1-Fc)
Conditions: mouse Ephrin A1 and Ephrin B2; 0.03-1000 μM
Experimental: Antibody A obtained in Example 1 was evaluated for its inhibitory activity against the binding between mouse EphA4 and its mouse ligand according to the following steps. Each well of a 96-well plate (Nunc) was coated with an anti-alkaline phosphatase antibody (Thermo Fisher Scientific). After incubation overnight at 4° C., each well was blocked with 1% BlockAce (DS Pharma Biomedical) at room temperature for 1 hour. After washing with 0.05% Tween 20/PBS (Thermo Fisher Scientific) three times, the mouse EphA4 extracellular region-SEAP-His protein obtained by the method of Example 1 was added (final concentration: 10 nM) to each well and incubated at room temperature for 1 hour. After washing three times, ligands and serially diluted antibody A (0, 0.001, 0.003, 0.01, 0.03, 0.1, 0.3, 1,3, 10, 30, 100, 300, and 1000 nM) or a known EphA4 inhibitor KYL peptide (KYLPYWPVLSSL, 0, 0.003, 0.01, 0.03, 0.1, 0.3, 1, 3, 10, 30, and 100 μM, its synthesis was outsourced to Hokkaido System Science) or compound 1 (0, 0.03, 0.1, 0.3, 1,3, 10, 30, 100, 300, and 1000 μM, Formula 1, Matrix Scientific) were added to each well. The ligands used were mouse Ephrin A1-Fc chimera (R&D Systems, final concentration: 20 nM) and mouse Ephrin B2-Fc chimera (R&D Systems, final concentration: 0.6 nM). […] The absorbance at 450 nm was read using a microplate reader (Molecular Devices).

T1 sequence (Q03137 with tags, fused parts or gaps): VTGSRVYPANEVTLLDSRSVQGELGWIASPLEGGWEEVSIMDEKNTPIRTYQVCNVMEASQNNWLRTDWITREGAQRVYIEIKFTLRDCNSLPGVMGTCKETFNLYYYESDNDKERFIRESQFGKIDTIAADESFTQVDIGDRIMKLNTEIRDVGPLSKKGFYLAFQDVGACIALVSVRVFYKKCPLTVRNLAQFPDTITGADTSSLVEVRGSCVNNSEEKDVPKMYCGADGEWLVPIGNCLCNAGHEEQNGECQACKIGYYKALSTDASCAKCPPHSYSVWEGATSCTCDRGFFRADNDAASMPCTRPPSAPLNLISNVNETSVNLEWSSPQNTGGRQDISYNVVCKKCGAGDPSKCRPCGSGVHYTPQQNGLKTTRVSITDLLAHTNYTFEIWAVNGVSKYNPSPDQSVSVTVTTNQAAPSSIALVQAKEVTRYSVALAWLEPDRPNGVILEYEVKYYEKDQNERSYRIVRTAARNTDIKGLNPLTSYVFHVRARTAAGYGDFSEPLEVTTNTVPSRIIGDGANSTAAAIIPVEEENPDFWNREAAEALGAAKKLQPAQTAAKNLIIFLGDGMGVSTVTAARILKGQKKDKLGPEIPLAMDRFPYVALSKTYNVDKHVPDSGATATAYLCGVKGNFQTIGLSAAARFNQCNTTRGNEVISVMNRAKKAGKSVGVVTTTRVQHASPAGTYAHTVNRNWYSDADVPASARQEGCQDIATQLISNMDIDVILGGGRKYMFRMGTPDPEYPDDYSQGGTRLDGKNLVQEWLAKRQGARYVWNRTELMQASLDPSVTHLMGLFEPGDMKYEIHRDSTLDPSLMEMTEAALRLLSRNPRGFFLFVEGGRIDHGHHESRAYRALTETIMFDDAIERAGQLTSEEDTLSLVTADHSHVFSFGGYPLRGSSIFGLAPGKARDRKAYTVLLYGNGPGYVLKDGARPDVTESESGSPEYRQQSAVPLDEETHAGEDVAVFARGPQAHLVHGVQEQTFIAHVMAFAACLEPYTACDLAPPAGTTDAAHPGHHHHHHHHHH

For Cc1ccc(C)n1-c1ccc(C(=O)O)c(O)c1 [Compound 1, reference compound], the “inhibition of binding between mouse EphA4 and mouse ligand (in words)” value was “weaker activity, and no concentration dependence was found”.
